Source: patent US10226451B2, “Substituted bicyclic compounds as bromodomain inhibitors” (ZENITH EPIGENETICS LTD, priority 2013, dated 2019)

Experiments:
[1] = test system: c-myc in Human AML MV4-11 cells; assay: Inhibition of c-MYC expression (mRNA, real-time PCR) in MV4-11 cells; assay type: cell-based; settings: 3 h, mRNA by real-time PCR
Summary of the method: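 Cells at 2.5×10^4 per well in IMDM/10% FBS were treated with rising compound concentrations or 0.1% DMSO for 3 h at 37° C., in triplicate. cMYC mRNA was measured by one-step TaqMan qRT-PCR, normalised to cyclophilin, and expressed as fold expression relative to control.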

[2] = test system: hIL-6 mRNA in U937 cells; assay: Inhibition of hIL-6 mRNA transcription in LPS-stimulated U937 cells; assay type: cell-based; settings: Homo sapiens, U-937, PMA-differentiated U937 cells, LPS 1 ug/mL, 3 h, read-out: IL-6 activity
Summary of the method: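 U937 cells were differentiated to macrophages with 60 ng/mL PMA for 3 days, pretreated 1 h with compound in 0.1% DMSO, then stimulated with 1 ug/mL E. coli LPS for 3 h at 37° C. hIL-6 mRNA was quantified by one-step TaqMan RT-qPCR, normalized to cyclophilin, as fold expression versus control.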

[3] = test system: hIL-17 mRNA in human peripheral blood mononuclear cells; assay: Inhibition of hIL-17 mRNA transcription in OKT3-stimulated PBMC; assay type: cell-based; settings: OKT3 antibody, 6 h, read-out: IL-17 activity
Summary of the method: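 Human PBMC in medium with 20 ng/ml IL-2 were pretreated 1 h at 37 °C with test compound or 0.1% DMSO, then stimulated with OKT3 (10 ug/ml 10× stock) for 6 h. IL-17 mRNA was measured by one-step TaqMan qRT-PCR, normalized to cyclophilin, and expressed as fold change versus control.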

[4] = test system: Bcl2 and c-myc gene expression in MV4-11 and MM1.s tumors; assay: Evaluation of target engagement in xenograft tumors (PD biomarkers); assay type: in vivo, mouse; settings: oral dose, tumors harvested 3, 6, 12, 24 hrs post dose
Experimental: MV4-11 and MM1.s cells (ATCC) were grown under standard cell culture conditions and (NCr) nu/nu fisol strain of female mice age 6-7 weeks were injected with 5×10^6 cells/animal in 100 μL PBS+100 μL Matrigel in the lower left abdominal flank. By approximately day 28 after MV4-11 and MM1.s cells injection, mice were randomized based on tumor volume (L×W×H)/2) of average ˜500 mm^3. Mice were dosed orally with compound in EA006 formulation at 10 mL/kg body weight dose volume and tumors harvested 3, 6, 12, 24 hrs post dose for Bcl2 and c-myc gene expression analysis as PD biomarkers.

[5] = test system: MM1.s cells xenograft; assay: In vivo efficacy, multiple myeloma xenograft model using MM1.s cells; design: species or system mouse; settings: SCID-Beige mice, oral dosing, tumor growth inhibition
Experimental: MM1.s cells (ATCC) were grown under standard cell culture conditions and SCID-Beige strain of female mice age 6-7 weeks were injected with 10×10^6 cells/animal in 100 μL PBS+100 μL Matrigel in the lower left abdominal flank. By approximately day 21 after MM1.s cells injection, mice were randomized based on tumor volume (L×W×H)/2) of average ˜120 mm^3. Mice were dosed orally with compound at 25 to 90 mg/kg b.i.d and or q.d in EA006 formulation at 10 mL/kg body weight dose volume. Tumor measurements were taken with electronic micro calipers and body weights measured on alternate days beginning from dosing period. The average tumor volumes, percent Tumor Growth Inhibition (TGI) and % change in body weights were compared relative to Vehicle control animals. The means, statistical analysis and the comparison between groups were calculated using Student's t-test in Excel.

## Cc1noc(C)c1-c1cc(-c2c(C)nn(C)c2C)c2c(c1)[nH]c(=O)n2C [Example Compound 9, 5-(3,5-dimethylisoxazol-4-yl)-1-methyl-7-(1,3,5-trimethyl-1H-pyrazol-4-yl)-1H-benzo[d]imidazol-2(3H)-one]
[1]
  IC50: ≤ 300 nM
[2]
  IC50: ≤ 300 nM
[3]
  IC50: ≤ 300 nM
[4]
  In vivo activity: Active
[5]
  In vivo activity: Active
